Active and inactive are the calls of the source. The rule behind the calls is not given here.
target: Concanavalin-A (Canavalia ensiformis) (UniProt P02866); test: Binding affinity to jack bean concanavalin A by enzyme-linked lectin assay
Sequence (P02866 whole entry): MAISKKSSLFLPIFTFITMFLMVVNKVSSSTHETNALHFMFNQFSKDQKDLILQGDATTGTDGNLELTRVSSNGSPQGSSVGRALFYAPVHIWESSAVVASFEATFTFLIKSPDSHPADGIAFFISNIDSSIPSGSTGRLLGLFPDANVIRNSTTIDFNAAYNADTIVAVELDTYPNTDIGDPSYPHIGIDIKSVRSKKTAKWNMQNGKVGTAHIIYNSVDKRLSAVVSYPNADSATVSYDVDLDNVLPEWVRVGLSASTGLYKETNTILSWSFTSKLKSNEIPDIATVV

| Activity | Compound |
| --- | --- |
| Active | NC(=O)CN(CCO[C@H]1O[C@H](CO)[C@@H](O)[C@H](O)[C@@H]1O)C(=O)CN(CCO[C@H]1O[C@H](CO)[C@@H](O)[C@H](O)[C@@H]1O)C(=O)CN(CCO[C@H]1O[C@H](CO)[C@@H](O)[C@H](O)[C@@H]1O)C(=O)CN(CCO[C@H]1O[C@H](CO)[C@@H](O)[C@H](O)[C@@H]1O)C(=O)CN(CCO[C@H]1O[C@H](CO)[C@@H](O)[C@H](O)[C@@H]1O)C(=O)CNC(=O)CCCCCNC(=O)CCCCC1SC[C@@H]2NC(=O)N[C@H]12 (stereo not given in full) |
| Active | CN(C)c1cccc2c(S(=O)(=O)N(CCO[C@H]3O[C@H](CO)[C@@H](O)[C@H](O)[C@@H]3O)CC(=O)N(CCO[C@H]3O[C@H](CO)[C@@H](O)[C@H](O)[C@@H]3O)CC(=O)N(CCO[C@H]3O[C@H](CO)[C@@H](O)[C@H](O)[C@@H]3O)CC(N)=O)cccc12 |
| Active | NC(=O)CCN(CCO[C@H]1O[C@H](CO)[C@@H](O)[C@H](O)[C@@H]1O)C(=O)CN(CCO[C@H]1O[C@H](CO)[C@@H](O)[C@H](O)[C@@H]1O)C(=O)CN(CCO[C@H]1O[C@H](CO)[C@@H](O)[C@H](O)[C@@H]1O)C(=O)CN(CCO[C@H]1O[C@H](CO)[C@@H](O)[C@H](O)[C@@H]1O)C(=O)CN(CCO[C@H]1O[C@H](CO)[C@@H](O)[C@H](O)[C@@H]1O)C(=O)CN(CCO[C@H]1O[C@H](CO)[C@@H](O)[C@H](O)[C@@H]1O)C(=O)CNC(=O)CCCCCNC(=O)CCCCC1SC[C@@H]2NC(=O)N[C@H]12 (stereo not given in full) |
| Active | NC(=O)CN(CCO[C@H]1O[C@H](CO)[C@@H](O)[C@H](O)[C@@H]1O)C(=O)CN(CCO[C@H]1O[C@H](CO)[C@@H](O)[C@H](O)[C@@H]1O)C(=O)CN(CCO[C@H]1O[C@H](CO)[C@@H](O)[C@H](O)[C@@H]1O)C(=O)CN(CCO[C@H]1O[C@H](CO)[C@@H](O)[C@H](O)[C@@H]1O)C(=O)CN(CCO[C@H]1O[C@H](CO)[C@@H](O)[C@H](O)[C@@H]1O)C(=O)CNC(=O)CCCCC1SC[C@@H]2NC(=O)N[C@H]12 (stereo not given in full) |
| Active | NC(=O)CCN(CCO[C@H]1O[C@H](CO)[C@@H](O)[C@H](O)[C@@H]1O)C(=O)CN(CCO[C@H]1O[C@H](CO)[C@@H](O)[C@H](O)[C@@H]1O)C(=O)CN(CCO[C@H]1O[C@H](CO)[C@@H](O)[C@H](O)[C@@H]1O)C(=O)CN(CCO[C@H]1O[C@H](CO)[C@@H](O)[C@H](O)[C@@H]1O)C(=O)CN(CCO[C@H]1O[C@H](CO)[C@@H](O)[C@H](O)[C@@H]1O)C(=O)CN(CCO[C@H]1O[C@H](CO)[C@@H](O)[C@H](O)[C@@H]1O)C(=O)CNC(=O)CCCCC1SC[C@@H]2NC(=O)N[C@H]12 (stereo not given in full) |

Reference: ChEMBL document CHEMBL1139780, “Pentamer is the minimum structure for oligomannosylpeptoids to bind to concanavalin A” (Bioorg Med Chem Lett, 2007)
